The numbers were not newly measured in US20150250887A1, “METHOD OF PREPARING RESIN TINCTURES” (JALEVA PHARMACEUTICALS, LLC, priority 2012, published 2015), which cites them from elsewhere.

Data set [1] concerns skin.

Read-outs that look alike come from different tables or passages of the source.

As to `CC(=O)O.CC(=O)O.NC(=N\CCCCCC/N=C(N)/N=C(\N)Nc1ccc(Cl)cc1)/N=C(\N)Nc1ccc(Cl)cc1` [chlorhexidine acetate], the skin irritant properties entry in data set [1] was “strong skin irritant”.
As to `N=C(NCCCCCCNC(=N)NC(=N)Nc1ccc(Cl)cc1)NC(=N)Nc1ccc(Cl)cc1.O=C(O)[C@H](O)[C@@H](O)[C@H](O)[C@H](O)CO.O=C(O)[C@H](O)[C@@H](O)[C@H](O)[C@H](O)CO` [chlorhexidine gluconate], in data set [1], the skin irritant properties result was “does not exhibit as strong irritant properties”.
The log D is lipophilicity at a set pH, counting ionised and neutral species. Regarding `O=C(O)Cc1ccccc1Nc1c(Cl)cccc1Cl` [diclofenac], the “log D” value (pH about 7.4) was 1.44.
Take `CNS(=O)(=O)CCc1ccc2[nH]cc(C3CCN(C)CC3)c2c1` [naratriptan]: the log distribution coefficient (log D) (pH about 7.4) is −0.85.
For `CN1CCCC1c1cccnc1` (stereo not shown) [nicotine], for the setting “pH 7.4”, the “log D” value is −0.62.
In the case of `Cc1nccn1CC1CCc2c(c3ccccc3n2C)C1=O` (stereo not shown) [ondansetron], the “log D” value (pH about 7.4) was 1.2.
Regarding `CCCc1nn(C)c2c(=O)[nH]c(-c3cc(S(=O)(=O)N4CCN(C)CC4)ccc3OCC)nc12` [sildenafil], the “log D” value (pH about 7.4) is listed as 2.26.
Consider `C[C@]12CC[C@H]3[C@@H](CCC4=CC(=O)CC[C@@]43C)[C@@H]1CC[C@@H]2O` [testosterone], for which, for the setting “pH 7.4”, the “log D” value is reported as 3.18.
`CC1=C(/C=C/C(C)=C/C=C/C(C)=C/C(=O)O)C(C)(C)CCC1` [tretinoin]: under “pH about 7.4”, the “log D” value is given as 4.19.
`CCCc1nc(C)c2c(=O)[nH]c(-c3cc(S(=O)(=O)N4CCN(CC)CC4)ccc3OCC)nn12` [vardenafil]: the log distribution coefficient (log D) (pH about 7.4) was 3.71.
